Reference: publication PMC9898749, “Cryo-EM structure of the plant nitrate transporter AtCLCa reveals characteristics of the anion-binding site and the ATP-binding pocket” (The Journal of Biological Chemistry, 2022)

T1: AtCLCa (Arabidopsis thaliana, UniProt P92941)
T1 construct: gene CLC-A; HEK293F (BacMam); purified in GDN; homodimer; modelled residues 53-626, 636-737, 744-766
T1 sequence (P92941 1-775): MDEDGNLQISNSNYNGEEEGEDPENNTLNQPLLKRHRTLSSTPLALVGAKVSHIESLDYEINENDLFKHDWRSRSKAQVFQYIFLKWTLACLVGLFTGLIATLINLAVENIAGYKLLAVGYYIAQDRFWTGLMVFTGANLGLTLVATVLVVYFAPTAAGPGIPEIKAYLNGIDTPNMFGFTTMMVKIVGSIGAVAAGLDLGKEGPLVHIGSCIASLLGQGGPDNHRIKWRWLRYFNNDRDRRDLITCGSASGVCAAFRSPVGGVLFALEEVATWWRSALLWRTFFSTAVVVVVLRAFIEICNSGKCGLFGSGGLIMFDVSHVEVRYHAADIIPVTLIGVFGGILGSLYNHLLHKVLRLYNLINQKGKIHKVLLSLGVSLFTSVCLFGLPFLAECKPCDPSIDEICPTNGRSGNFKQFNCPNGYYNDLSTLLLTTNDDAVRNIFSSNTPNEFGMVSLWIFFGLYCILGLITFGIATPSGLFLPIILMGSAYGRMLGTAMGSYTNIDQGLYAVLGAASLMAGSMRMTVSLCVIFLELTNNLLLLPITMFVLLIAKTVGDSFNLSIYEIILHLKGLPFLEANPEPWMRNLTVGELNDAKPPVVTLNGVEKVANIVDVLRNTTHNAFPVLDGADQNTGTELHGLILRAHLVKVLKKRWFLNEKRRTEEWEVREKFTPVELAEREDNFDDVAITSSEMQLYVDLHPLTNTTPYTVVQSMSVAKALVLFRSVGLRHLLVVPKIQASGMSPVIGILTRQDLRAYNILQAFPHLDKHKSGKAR


Columns and labels:
AtCLCa = biological target: T1, AtCLCa; assay: cryo-EM structure, […] Å; type: binding; settings: 150 mM NaNO3; GDN detergent; pH 7.5; three anion sites (external, central, internal) in transport pathway; identity assigned from buffer; nitrates placed by docking overlapping EM densities
[1] = biological target: the molecule itself; assay: cryo-EM structure; AtCLCa 4.2 mg/ml in 20 mM Hepes pH 7.5, 150 mM NaNO3, 0.06% GDN; endogenous Mg2+-ATP bound; C2 symmetry imposed; 2.8 Å

| Molecule | cryo-EM structure, 2.8 Å (AtCLCa) | stoichiometry N [1] |
| --- | --- | --- |
| O=[N+]([O-])O [nitrate] | The ions are most likely nitrate because we purified the protein in a buffer |  |
| Arabidopsis thaliana CLCa (natural protein, UniProt P92941 1-775, looked up, AtCLCa, Arabidopsis thaliana chloride channel protein CLC-a, nitrate/proton antiporter; NCBI NP_198905.1; full length (residues 1-775; modelled residues 53-626, 636-737, 744-766); A C-terminal 3C cleavage site stands between the protein and the strep tag; Copurified with endogenous Mg2+-ATP; purified in 150 mM sodium nitrate; also called AtCLCa; source: HEK293F cells, BacMam system, purified …) MDEDGNLQISNSNYNGEEEGEDPENNTLNQPLLKRHRTLSSTPLALVGAKVSHIESLDYEINENDLFKHDWRSRSKAQVFQYIFLKWTLACLVGLFTGLIATLINLAVENIAGYKLLAVGYYIAQDRFWTGLMVFTGANLGLTLVATVLVVYFAPTAAGPGIPEIKAYLNGIDTPNMFGFTTMMVKIVGSIGAVAAGLDLGKEGPLVHIGSCIASLLGQGGPDNHRIKWRWLRYFNNDRDRRDLITCGSASGVCAAFRSPVGGVLFALEEVATWWRSALLWRTFFSTAVVVVVLRAFIEICNSGKCGLFGSGGLIMFDVSHVEVRYHAADIIPVTLIGVFGGILGSLYNHLLHKVLRLYNLINQKGKIHKVLLSLGVSLFTSVCLFGLPFLAECKPCDPSIDEICPTNGRSGNFKQFNCPNGYYNDLSTLLLTTNDDAVRNIFSSNTPNEFGMVSLWIFFGLYCILGLITFGIATPSGLFLPIILMGSAYGRMLGTAMGSYTNIDQGLYAVLGAASLMAGSMRMTVSLCVIFLELTNNLLLLPITMFVLLIAKTVGDSFNLSIYEIILHLKGLPFLEANPEPWMRNLTVGELNDAKPPVVTLNGVEKVANIVDVLRNTTHNAFPVLDGADQNTGTELHGLILRAHLVKVLKKRWFLNEKRRTEEWEVREKFTPVELAEREDNFDDVAITSSEMQLYVDLHPLTNTTPYTVVQSMSVAKALVLFRSVGLRHLLVVPKIQASGMSPVIGILTRQDLRAYNILQAFPHLDKHKSGKAR |  | 2 |
